{"source": "paper PMC7587356", "about": "“High-Throughput Screening for Inhibitors of the SARS-CoV-2 Protease Using a FRET-Biosensor” (Molecules, 2020)", "target": "SARS-CoV-2 3CLpro (Severe acute respiratory syndrome coronavirus 2, UniProt P0DTD1)", "assay": "biochemical", "type": "biochemical", "set-up": "Replicate_1 / Replicate_2 / mean / mean (LOPAC_screen_w_protease): unit not given here", "conditions": "for inhibition at 5 µM: 4 h", "key": {"[1]": {"conditions": "LOPAC1280 primary screen with protease, 5 µM compound, replicate 1"}, "[2]": {"conditions": "LOPAC1280 primary screen with protease, 5 µM compound, replicate 2"}, "[3]": {"conditions": "LOPAC1280 primary screen with protease, 5 µM compound, mean of two replicates"}, "[4]": {"conditions": "sheet LOPAC_screen_w_protease, primary screen with protease, mean of two replicates"}, "[5]": {"conditions": "sheet LOPAC_screen_w_protease, primary screen with protease, replicate 1"}, "[6]": {"conditions": "sheet LOPAC_screen_w_protease, primary screen with protease, replicate 2"}, "[7]": {"conditions": "sheet LOPAC_screen_w_protease, LOPAC1280 at 5 µM, mean of two replicates"}, "[8]": {"conditions": "sheet LOPAC_screen_w_protease, LOPAC1280 at 5 µM, replicate 1"}, "[9]": {"conditions": "sheet LOPAC_screen_w_protease, LOPAC1280 at 5 µM, replicate 2"}, "[10]": {"conditions": "sheet LOPAC_screen_w_protease, primary screen of LOPAC1280 at 5 µM with protease, mean of the two replicates"}, "[11]": {"conditions": "sheet LOPAC_screen_w_protease, primary screen of LOPAC1280 at 5 µM with protease, replicate 1"}, "[12]": {"conditions": "sheet LOPAC_screen_w_protease, primary screen of LOPAC1280 at 5 µM with protease, replicate 2"}, "[13]": {"conditions": "sheet LOPAC_screen_w_protease, LOPAC1280 primary screen with protease, 5 µM compound, mean of the two replicates, read-out: mean"}, "[14]": {"conditions": "sheet LOPAC_screen_w_protease, LOPAC1280 primary screen with protease, 5 µM compound, replicate 1, read-out: Replicate_1"}, "[15]": {"conditions": "sheet LOPAC_screen_w_protease, LOPAC1280 primary screen with protease, 5 µM compound, replicate 2, read-out: Replicate_2"}}, "note": "Counter-ions that a name gives are not always drawn. Like-named read-outs stand apart in the source and are kept apart here."}
{"smiles": "Br.CCCN(CCC)C1CCc2cccc(O)c2C1", "note": "(racemic) [(±)-8-Hydroxy-DPAT hydrobromide]", "values": [{"measurement": "mean (LOPAC_screen_w_protease)", "setting": "LOPAC1280 primary screen with protease, 5 µM compound, mean of the two replicates", "value": 1.82}, {"measurement": "Replicate_1 (LOPAC_screen_w_protease)", "setting": "[1]", "value": 3.36}, {"measurement": "Replicate_2 (LOPAC_screen_w_protease)", "setting": "[2]", "value": 0.2793}]}
{"smiles": "CCC(=O)c1ccc2c(c1)N(CCCN(C)C)c1ccccc1S2", "note": "[Propionylpromazine hydrochloride]", "values": [{"measurement": "inhibition at 5 µM", "setting": "LOPAC1280 primary screen with protease, 5 µM compound, replicate 1, read-out: Replicate_1 (LOPAC_screen_w_protease)", "value": 2.15, "unit": "%"}, {"measurement": "inhibition at 5 µM", "setting": "LOPAC1280 primary screen with protease, 5 µM compound, replicate 2, read-out: Replicate_2 (LOPAC_screen_w_protease)", "value": 0.621, "unit": "%"}, {"measurement": "mean (LOPAC_screen_w_protease)", "setting": "[3]", "value": 1.386}]}
{"smiles": "NCC(CC(=O)O)c1ccc(Cl)cc1", "note": "(racemic) [(±)-Baclofen]", "values": [{"measurement": "mean", "setting": "[4]", "value": 2.345}, {"measurement": "Replicate_1", "setting": "[5]", "value": 1.225}, {"measurement": "Replicate_2", "setting": "[6]", "value": 3.465}]}
{"smiles": "CN(C)CC/C=C1/c2ccccc2Sc2ccc(Cl)cc21", "note": "[Chlorprothixene hydrochloride]", "values": [{"measurement": "inhibition at 5 µM", "setting": "sheet LOPAC_screen_w_protease, LOPAC1280 at 5 µM, mean of two replicates, read-out: mean", "value": 1.25, "unit": "%"}, {"measurement": "inhibition at 5 µM", "setting": "sheet LOPAC_screen_w_protease, LOPAC1280 at 5 µM, replicate 1, read-out: Replicate_1", "value": 0.326, "unit": "%"}, {"measurement": "inhibition at 5 µM", "setting": "sheet LOPAC_screen_w_protease, LOPAC1280 at 5 µM, replicate 2, read-out: Replicate_2", "value": 2.17, "unit": "%"}]}
{"smiles": "C#CC(N)CCC(=O)O", "note": "(stereo not drawn) [gamma-Acetylinic GABA]", "values": [{"measurement": "mean", "setting": "[4]", "value": 2.242}, {"measurement": "Replicate_1", "setting": "[5]", "value": 2.252}, {"measurement": "Replicate_2", "setting": "[6]", "value": 2.232}]}
{"smiles": "CN1CC[C@]2(CCN3CCc4c(oc5ccccc45)[C@@H]3C2)N(C)C1=O", "note": "[MK-912]", "values": [{"measurement": "mean (LOPAC_screen_w_protease)", "setting": "[3]", "value": 1.637}, {"measurement": "Replicate_1 (LOPAC_screen_w_protease)", "setting": "[1]", "value": 1.746}, {"measurement": "Replicate_2 (LOPAC_screen_w_protease)", "setting": "[2]", "value": 1.529}]}
{"smiles": "CNC(=O)c1cc2c(cn1)[nH]c1ccccc12", "note": "[N-Methyl-beta-carboline-3-carboxamide]", "values": [{"measurement": "mean", "setting": "[7]", "value": 1.084}, {"measurement": "Replicate_1", "setting": "[8]", "value": 1.698}, {"measurement": "Replicate_2", "setting": "[9]", "value": 0.4701}]}
{"smiles": "CCCCCCCC/C=C\\CCCCCCCC(=O)NCCO", "note": "[N-Oleoylethanolamine]", "values": [{"measurement": "mean", "setting": "[10]", "value": 3.1732}, {"measurement": "Replicate_1", "setting": "[11]", "value": 4.947}, {"measurement": "Replicate_2", "setting": "[12]", "value": 1.4}]}
{"smiles": "CN1[C@@H](CC(=O)c2ccccc2)CCC[C@H]1C[C@H](O)c1ccccc1.Cl", "note": "[alpha-Lobeline hydrochloride]", "values": [{"measurement": "mean", "setting": "[7]", "value": 1.292}, {"measurement": "Replicate_1", "setting": "[8]", "value": 1.696}, {"measurement": "Replicate_2", "setting": "[9]", "value": 0.8887}]}
{"smiles": "N=C(N)c1ccc(N)cc1", "note": "[4-Aminobenzamidine dihydrochloride]", "values": [{"measurement": "inhibition at 5 µM", "setting": "sheet LOPAC_screen_w_protease, primary screen with protease, 5 µM, mean of two replicates, read-out: mean", "value": -0.229, "unit": "%"}, {"measurement": "inhibition at 5 µM", "setting": "sheet LOPAC_screen_w_protease, primary screen with protease, 5 µM, replicate 1, read-out: Replicate_1", "value": 1.52, "unit": "%"}, {"measurement": "inhibition at 5 µM", "setting": "sheet LOPAC_screen_w_protease, primary screen with protease, 5 µM, replicate 2, read-out: Replicate_2", "value": -1.98, "unit": "%"}]}
{"smiles": "c1ccc2c(c1)[I+]c1ccccc1-2", "note": "[Diphenyleneiodonium chloride]", "values": [{"measurement": "inhibition at 5 µM", "setting": "read-out: Replicate_1", "value": 3.49, "unit": "%"}, {"measurement": "inhibition at 5 µM", "setting": "read-out: Replicate_2", "value": 2.49, "unit": "%"}, {"measurement": "inhibition at 5 µM", "setting": "read-out: mean", "value": 2.99, "unit": "%"}]}
{"smiles": "COC(=O)[C@@H](N)CCCN=C(N)N[N+](=O)[O-].Cl", "values": [{"measurement": "mean", "setting": "[10]", "value": 3.268}, {"measurement": "Replicate_1", "setting": "[11]", "value": 2.366}, {"measurement": "Replicate_2", "setting": "[12]", "value": 4.171}]}
{"smiles": "CC1CNCCN1S(=O)(=O)c1cccc2cnccc12.Cl.Cl", "note": "(stereo not drawn) [H-7 dihydrochloride]", "values": [{"measurement": "mean (LOPAC_screen_w_protease)", "setting": "[3]", "value": 1.4971}, {"measurement": "Replicate_1 (LOPAC_screen_w_protease)", "setting": "[1]", "value": 2.345}, {"measurement": "Replicate_2 (LOPAC_screen_w_protease)", "setting": "[2]", "value": 0.6491}]}
{"smiles": "Clc1ccc(N2C[C@H]3CC[C@@H](C2)N3)nn1", "note": "[DBO-83]", "values": [{"measurement": "mean", "setting": "sheet LOPAC_screen_w_protease, LOPAC1280 primary screen with protease, 5 µM compound, mean of the two replicates", "value": 6.059}, {"measurement": "Replicate_1", "setting": "sheet LOPAC_screen_w_protease, LOPAC1280 primary screen with protease, 5 µM compound, replicate 1", "value": 7.536}, {"measurement": "Replicate_2", "setting": "sheet LOPAC_screen_w_protease, LOPAC1280 primary screen with protease, 5 µM compound, replicate 2", "value": 4.581}]}
{"smiles": "CC(COc1ccccc1)N(CCCl)Cc1ccccc1", "note": "(stereo not drawn) [Phenoxybenzamine hydrochloride]", "values": [{"measurement": "inhibition at 5 µM", "setting": "[13]", "value": 4.33, "unit": "%"}, {"measurement": "inhibition at 5 µM", "setting": "[14]", "value": 4.24, "unit": "%"}, {"measurement": "inhibition at 5 µM", "setting": "[15]", "value": 4.41, "unit": "%"}]}
{"smiles": "NC(=O)C(=O)O", "note": "[Sodium Oxamate]", "values": [{"measurement": "inhibition at 5 µM", "setting": "[13]", "value": 4.58, "unit": "%"}, {"measurement": "inhibition at 5 µM", "setting": "[14]", "value": 4.67, "unit": "%"}, {"measurement": "inhibition at 5 µM", "setting": "[15]", "value": 4.48, "unit": "%"}]}
{"smiles": "Cc1ccc(=O)n(-c2ccccc2)c1", "note": "[Pirfenidone]", "values": [{"measurement": "inhibition at 5 µM", "setting": "sheet LOPAC_screen_w_protease, primary screen of LOPAC1280 at 5 µM with protease, mean of the two replicates, read-out: mean", "value": 4.02, "unit": "%"}, {"measurement": "inhibition at 5 µM", "setting": "sheet LOPAC_screen_w_protease, primary screen of LOPAC1280 at 5 µM with protease, replicate 1, read-out: Replicate_1", "value": 2.71, "unit": "%"}, {"measurement": "inhibition at 5 µM", "setting": "sheet LOPAC_screen_w_protease, primary screen of LOPAC1280 at 5 µM with protease, replicate 2, read-out: Replicate_2", "value": 5.33, "unit": "%"}]}
{"smiles": "Cl.NCC(O)c1cc(O)c(O)cc1F", "note": "(stereo not drawn) [6-Fluoronorepinephrine hydrochloride]", "values": [{"measurement": "mean", "setting": "sheet LOPAC_screen_w_protease, primary screen with protease, compound at 5 µM, mean of two replicates", "value": 2.749}, {"measurement": "Replicate_1", "setting": "sheet LOPAC_screen_w_protease, primary screen with protease, compound at 5 µM, replicate 1", "value": 2.331}, {"measurement": "Replicate_2", "setting": "sheet LOPAC_screen_w_protease, primary screen with protease, compound at 5 µM, replicate 2", "value": 3.1667}]}
